Data as given in patent US12629382B2, “Therapy” (Vestlandets Innovasjonsselskap AS, priority 2019, dated 2026).

Experiments:
Format in all cases: cell-based
MCF7 = test: Intracellular GSH, GSH-Glo assay, MCF7 cells; conditions: Homo sapiens, 48 h, normalized to untreated control; for activity at 250 µM: 250 μM compound, read-out: Intracellular GSH level MCF7 250 μM; for activity at 500 µM: 500 μM compound, read-out: Intracellular GSH level MCF7 500 μM
Protocol: (§1) The cancer cell lines A172, A375, U87 and MCF7 were purchased from American Type Culture Collection (ATCC; Manassas, Va., USA). Cells were cultured in Dulbecco's Modified Eagle's Medium (DMEM) supplemented with 10% fetal bovine serum, 2% v/v L-glutamine, 3.2% v/v non-essential amino acids, antibiotics 2% v/v (penicillin-streptomycin), and 0.02% v/v Plasmocin at 37° C. and 5% CO2.
(§2) xCT expression of cancer cell lines was evaluated by western blotting from protein samples of cell lysates as described in Sleire et al., Oncogene 34: 5951-5959, 2015. Protein concentrations were determined by BCA assay (Thermo Fisher Scientific, USA) followed by SDS PAGE and immunoblotting using rabbit anti-xCT (Thermo Fisher Scientific) and rabbit anti-GAPDH (Abcam, Cambridge, UK) as a loading control. The compounds were dissolved in dimethylsulfoxide (DMSO) (Sigma Aldrich, Germany) and stock concentrations of 100 mM were stored at −20° C. in aliquots. Final concentrations were made in growth medium before adding to the cell monolayers.
(§3) The compounds were evaluated based on the measurement of intracellular Glutathione (GSH) which was performed by the GSH-Glo assay (Promega, Madison, WI, USA, cat #V6912) according to the manufacturer's recommended procedures. 5000 cells per well were seeded in a flat bottomed 96-well plate. After attachment to the well surface, cells were exposed to 250 μM and 500 μM of each compound for 48 h. After that, GSH-Glo reagent was added followed by short incubation and addition of luciferin detection reagent. Bioluminescence was measured using a luminometer (Victor 3 1420 multi-label counter, Perkins Elmer, Waltham, MA, USA). IC50 doses for the compounds SAS, DC10 and DC14 were determined in A172 glioma cells, using the GraphPad Prism v6 software (GraphPad Software, Inc. CA, USA). All measurements were normalized to the untreated control and were performed three times.

A172 glioma cells = test: Intracellular GSH, GSH-Glo assay, A172 cells; conditions: Homo sapiens, 48 h, normalized to untreated control; for activity at 250 µM: A 172, 250 μM compound, read-out: Intracellular GSH level A172 250 μM; for activity at 500 µM: A 172, 500 μM compound, read-out: Intracellular GSH level A172 500 μM
Protocol: as §1, §2, §3

U87 = test: Intracellular GSH, GSH-Glo assay, U87 cells; conditions: Homo sapiens, U-87 MG, 48 h, normalized to untreated control; for activity at 250 µM: 250 μM compound, read-out: Intracellular GSH level U87 250 μM; for activity at 500 µM: 500 μM compound, read-out: Intracellular GSH level U87 500 μM
Protocol: as §1, §2, §3

A375 = test: Intracellular GSH, GSH-Glo assay, A375 cells; conditions: Homo sapiens, 48 h, normalized to untreated control; for activity at 250 µM: A-375, 250 μM compound, read-out: Intracellular GSH level A375 250 μM; for activity at 500 µM: A-375, 500 μM compound, read-out: Intracellular GSH level A375 500 μM
Protocol: as §1, §2, §3

SMILES	activity at 250 µM (MCF7) [%]	activity at 500 µM (MCF7) [%]	activity at 250 µM (A172 glioma cells) [%]	activity at 500 µM (A172 glioma cells) [%]	activity at 250 µM (U87) [%]	activity at 500 µM (U87) [%]	activity at 250 µM (A375) [%]	activity at 500 µM (A375) [%]
COc1ccc(/C=C/c2ccccc2)cc1C(=O)O [DC01, (E)-2-methoxy-5-styrylbenzoic acid]	93.8	66.5	84.6	76.2	76.6	79.6	60.5	43.1
O=C(O)c1cc(/C=C/c2ccccc2)ccc1O [DC02, (E)-2-hydroxy-5-styrylbenzoic acid]	47.4	15.9	90.9	41	82.2	66.9	50.4	32
COc1ccc(/C=C\c2ccccc2)cc1C(=O)O [DC03, (Z)-2-methoxy-5-styrylbenzoic acid]	94.9	49.4	77.5	68.2	87.9	88.4	68.6	47.6
COc1ccc(C#Cc2ccccc2)cc1C(=O)O [DC04, 2-methoxy-5-(phenylethynyl)benzoic acid]	91.4	68	86.9	77.6	80.6	88.6	63.4	42.4
COc1ccc(-c2ccc3ccccc3c2)cc1C(=O)O [DC05, 2-methoxy-5-(naphthalen-2-yl)benzoic acid]	82.4	39	75.6	57.7	42.9	39.5	47.6	37.9
O=C(O)c1cc(/C=C/c2ccc(F)cc2)ccc1O [DC07, (E)-5-(4-fluorostyryl)-2-hydroxybenzoic acid]	22.1	6.9	81.6	16.8	50.4	11.7	23.8	7.8
CSc1ccc(/C=C/c2ccc(O)c(C(=O)O)c2)cc1 [DC08, (E)-2-hydroxy-5-(4-(methylthio)styryl)benzoic acid]	21.1	6.6	28.8	9.3	51.1	8.4	25.9	3.7
O=C(O)c1cc(-c2ccc3ccccc3c2)ccc1O [DC11, 2-hydroxy-5-(naphthalen-2-yl)benzoic acid]	23.7	8.8	28.4	10.2	62.6	22.7	36.1	11.8
Nc1ccc(/C=C/c2ccccc2)cc1C(=O)O [DC12, (E)-2-amino-5-styrylbenzoic acid]	116	96.5	107	101	104	117	116	95.6
CS(=O)(=O)c1ccc(/C=C/c2ccc(O)c(C(=O)O)c2)cc1 [DC13, (E)-2-hydroxy-5-(4-(methylsulfonyl)styryl)benzoic acid]	88.3	76.6	94.1	81.6	105	103	74.3	59.7
O=C(O)c1cc(/C=C/c2ccc(S(=O)(=O)Nc3ccccc3)cc2)ccc1O [DC14, (E)-2-hydroxy-5-(4-(N-phenylsulfamoyl)styryl)benzoic acid]	25.9	1.8	23.1	2.4	18	1.9	4.5	2
Oc1ccc(/C=C/c2ccccc2)cc1-c1nnn[nH]1 [DC15, (E)-4-styryl-2-(1H-tetrazol-5-yl)phenol]	75.8	32.6	55.1	9.7	104	50.4	53.3	46.4
CC(=O)Nc1ccc(/C=C/c2ccccc2)cc1C(=O)O [DC16, (E)-2-acetamido-5-styrylbenzoic acid]	92.4	83.7	67.3	51.7	73.5	63.2	34.5	26.4
O=C(O)c1cc(-c2ccc(-c3ccccc3)cc2)ccc1O [DC17, 4-hydroxy-[1,1′:4′,1″-terphenyl]-3-carboxylic acid]	51.7	17	98.4	28.7	66.2	20.2	56.6	4.6
O=C(O)c1cc(/C=C/c2cccc(-c3ccccc3)c2)ccc1O [DC18, (E)-5-(2-([1,1′-biphenyl]-3-yl)vinyl)-2-hydroxybenzoic acid]	54.6	4.8	74	3.7	66.5	4.6	53.7	3.4
O=C(O)c1cc(/C=C/c2ccccc2-c2ccccc2)ccc1O [DC19, (E)-5-(2-([1,1′-biphenyl]-2-yl)vinyl)-2-hydroxybenzoic acid]	51	4.3	58.7	3.3	64.6	5	47.8	3.7
Cc1cc(O)c(C(=O)O)c(C)c1-c1ccc2ccccc2c1 [DC20, 6-hydroxy-2,4-dimethyl-3-(naphthalen-2-yl)benzoic acid]	40.5	9.7	82.1	11.9	61.1	6.1	63.1	4.6
CC1(C)c2ccccc2-c2ccc(/C=C/c3ccc(O)c(C(=O)O)c3)cc21 [DC21, (E)-5-(2-(9,9-dimethyl-9H-fluoren-2-yl)vinyl)-2-hydroxybenzoic acid]	5.7	4.2	4.9	2.8	5	3.8	4.2	3.3
